Structures can show the parent of a compound that is named as a salt.
These molecules were tested on progranulin (PGRN) (assay: progranulin induction cellular assay (PGRN assay), ELISA-based readout). Settings: PGRN assay as described: mouse primary microglia, primary cortical neurons and BV-2 cell lines; secreted mouse PGRN in medium by ELISA; cell type for Table B not specified.
Experimental: Cellular Assays: To measure the efficacy of compounds, a progranulin induction cellular assay in mouse primary microglia (pMG), primary cortical neurons, and BV-2 cell lines is used. BV-2 cells are split the day before plating into a 96 well plate format at approximately 80%. Cells should be plated the day before and allowed for 1 hour attachment period and for 16 hour incubation. Levels of progranulin secreted into the cell culture medium or retained in the cell lysate can be quantified using an ELISA-based readout and measurement of secreted mouse PGRN in the medium was assessed by the methodology published by Ghidoni et al. 2012. Standard ELISA kits to measure PGRN are available from vendors such as Adipogen, R&D, and Biovendor.
Table B below presents the results of a PGRN assay as described above.

Structure (SMILES)	EC50
N[C@@H]1CC[C@H]1OC(=O)N1CCc2ccccc2[C@@H]1c1ccc(F)cc1 (single isomer, unassigned) [Compound 4039, hydrochloride]	1.21 µM
O=C(NC12CC(N3CCCC3)(C1)C2)N1CCc2ccccc2[C@@H]1c1ccc(F)cc1 [Compound 4012, (S)-1-(4-fluorophenyl)-N-(3-(pyrrolidin-1-yl)bicyclo[1.1.1]pentan-1-yl)-3,4-dihydroisoquinoline-2(1H)-carboxamide]	7.81 µM
O=C(OC12CC(N3CCCC3=O)(C1)C2)N1CCc2ccccc2[C@@H]1c1ccc(F)cc1 [Compound 4025, 3-(2-Oxopyrrolidin-1-yl)bicyclo[1.1.1]pentan-1-yl (S)-1-(4-fluorophenyl)-3,4-dihydroisoquinoline-2(1H)-carboxylate]	> 10 µM
O=C(NC12CC(N3CCOCC3)(C1)C2)N1CCc2ccccc2[C@@H]1c1ccc(F)cc1 [Compound 4013, (S)-1-(4-fluorophenyl)-N-(3-morpholinobicyclo[1.1.1]pentan-1-yl)-3,4-dihydroisoquinoline-2(1H)-carboxamide]	> 10 µM
CN(C)C12CC(NC(=O)N3CCc4ccccc4[C@@H]3c3ccc(F)cc3)(C1)C2 [Compound 4022, (S)—N-(3-(dimethylamino)bicyclo[1.1.1]pentan-1-yl)-1-(4-fluorophenyl)-3,4-dihydroisoquinoline-2(1H)-carboxamide]	5.33 µM
C#CCOCCNC12CC(NC(=O)N3CCc4ccccc4[C@@H]3c3ccc(F)cc3)(C1)C2 [Compound 4011, (S)-1-(4-fluorophenyl)-N-(3-((2-(prop-2-yn-1-yloxy)ethyl)amino)bicyclo[1.1.1]pentan-1-yl)-3,4-dihydroisoquinoline-2(1H)-carboxamide]	5.16 µM
N[C@H]1CC[C@H](C(=O)N2CCc3ccccc3[C@@H]2c2ccc(F)cc2)CC1 [Compound 4144]	3.12 µM
CN(C(=O)N1CCc2ccccc2[C@@H]1c1ccc(F)cc1)C12CC(N)(C1)C2 [Compound 4010, (S)—N-(3-aminobicyclo[1.1.1]pentan-1-yl)-1-(4-fluorophenyl)-N-methyl-3,4-dihydroisoquinoline-2(1H)-carboxamide]	> 10 µM
O=C(NC12CC(NCC(F)(F)F)(C1)C2)N1CCc2ccccc2[C@@H]1c1ccc(F)cc1 [Compound 4023, (S)-1-(4-fluorophenyl)-N-(3-((2,2,2-trifluoroethyl)amino)bicyclo[1.1.1]pentan-1-yl)-3,4-dihydroisoquinoline-2(1H)-carboxamide]	> 10 µM
CC(=O)NC12CC(OC(=O)N3CCc4ccccc4[C@@H]3c3ccc(F)cc3)(C1)C2 [Compound 4015, 3-Acetamidobicyclo[1.1.1]pentan-1-yl (S)-1-(4-fluorophenyl)-3,4-dihydroisoquinoline-2(1H)-carboxylate]	> 10 µM
C#CCNC12CC(N(CC#C)C(=O)N3CCc4ccccc4[C@@H]3c3ccc(F)cc3)(C1)C2 [Compound 4006, (S)-1-(4-fluorophenyl)-N-(prop-2-yn-1-yl)-N-(3-(prop-2-yn-1-ylamino)bicyclo[1.1.1]pentan-1-yl)-3,4-dihydroisoquinoline-2(1H)-carboxamide]	> 10 µM
N[C@H]1C[C@@H](CNC(=O)N2CCc3ccccc3[C@@H]2c2ccc(F)cc2)C1 [Compound 4028, Cis-(S)—N-((3-aminocyclobutyl)methyl)-1-(4-fluorophenyl)-3,4-dihydroisoquinoline-2(1H)-carboxamide]	2.32 µM
O=C(OC12CC(NCC(F)(F)F)(C1)C2)N1CCc2ccccc2[C@@H]1c1ccc(F)cc1 [Compound 4014, 3-((2,2,2-trifluoroethyl)amino)bicyclo[1.1.1]pentan-1-yl (S)-1-(4-fluorophenyl)-3,4-dihydroisoquinoline-2(1H)-carboxylate]	> 10 µM
O=C(NC12CC(NC(=O)C(F)(F)F)(C1)C2)N1CCc2ccccc2[C@@H]1c1ccc(F)cc1 [Compound 4019]	2.37 µM
CS(=O)(=O)CCNC12CC(NC(=O)N3CCc4ccccc4[C@@H]3c3ccc(F)cc3)(C1)C2 [Compound 4007, (S)-1-(4-fluorophenyl)-N-(3-((2-(methylsulfonyl)ethyl)amino)bicyclo[1.1.1]pentan-1-yl)-3,4-dihydroisoquinoline-2(1H)-carboxamide 2,2,2-trifluoroacetate]	> 10 µM
N[C@H]1C[C@H](COC(=O)N2CCc3ccccc3[C@@H]2c2ccc(F)cc2)C1 [Compound 4047, (Trans-3-aminocyclobutyl)methyl (S)-1-(4-fluorophenyl)-3,4-dihydroisoquinoline-2(1H)-carboxylate]	1.64 µM
N[C@H]1CC[C@@H]1COC(=O)N1CCc2ccccc2[C@@H]1c1ccc(F)cc1 [Compound 4134, ((1S,2S)-2-aminocyclobutyl)methyl (S)-1-(4-fluorophenyl)-3,4-dihydroisoquinoline-2(1H)-carboxylate]	1.29 µM
C#CCNC12CC(NC(=O)N3CCc4ccccc4[C@@H]3c3ccc(F)cc3)(C1)C2 [Compound 4005, (S)-1-(4-fluorophenyl)-N-(3-(prop-2-yn-1-ylamino)bicyclo[1.1.1]pentan-1-yl)-3,4-dihydroisoquinoline-2(1H)-carboxamide 2,2,2-trifluoroacetate]	> 10 µM
CC(=O)NC12CC(NC(=O)N3CCc4ccccc4[C@@H]3c3ccc(F)cc3)(C1)C2 [Compound 4016, (S)—N-(3-acetamidobicyclo[1.1.1]pentan-1-yl)-1-(4-fluorophenyl)-3,4-dihydroisoquinoline-2(1H)-carboxamide]	> 10 µM
CS(=O)(=O)CCNC12CC(OC(=O)N3CCc4ccccc4[C@@H]3c3ccc(F)cc3)(C1)C2 [Compound 4027, 3-((2-(Methylsulfonyl)ethyl)amino)bicyclo[1.1.1]pentan-1-yl (S)-1-(4-fluorophenyl)-3,4-dihydroisoquinoline-2(1H)-carboxylate hydrochloride]	1.06 µM

The next molecules have a lower EC50 than those just listed; values first:

EC50	Structure (SMILES)
0.571 µM	CN(C)[C@H]1C[C@@H](CC(=O)N2CCc3ccccc3[C@@H]2c2ccc(F)cc2)C1 [Compound 4126]
0.031 µM	C[C@]1(NC(=O)N2CCc3ccccc3[C@@H]2c2ccc(F)cc2)C[C@H](N)C1 [Compound 4053, (S)—N-((trans)-3-amino-1-methylcyclobutyl)-1-(4-fluorophenyl)-3,4-dihydroisoquinoline-2(1H)-carboxamide]
0.773 µM	CN(C)[C@H]1C[C@@H](OC(=O)N2CCc3ccccc3[C@@H]2c2ccc(F)cc2)C1 [Compound 4127]
0.091 µM	NC12CC(NC(=O)N3CCc4ccccc4C3c3ccc(F)cc3F)(C1)C2 (single isomer, unassigned) [Compound 4137, N-(3-aminobicyclo[1.1.1]pentan-1-yl)-1-(2,4-difluorophenyl)-3,4-dihydroisoquinoline-2(1H)-carboxamide]
0.099 µM	N[C@H]1C[C@H](C(=O)N2CCc3ccccc3[C@@H]2c2ccc(F)cc2)C1 [Compound 4147, (trans-3-aminocyclobutyl)((S)-1-(4-fluorophenyl)-3,4-dihydroisoquinolin-2(1H)-yl)methanone]
0.225 µM	CNC12CC(NC(=O)N3CCc4ccccc4[C@@H]3c3ccc(F)cc3)(C1)C2 [Compound 4004, (S)-1-(4-fluorophenyl)-N-(3-(methylamino)bicyclo[1.1.1]pentan-1-yl)-3,4-dihydroisoquinoline-2(1H)-carboxamide]
0.29 µM	CN(C)[C@H]1C[C@@H](NC(=O)N2CCc3ccccc3[C@@H]2c2ccc(F)cc2)C1 [Compound 4068]
0.913 µM	CN[C@H]1C[C@@H](N(C)C(=O)N2CCc3ccccc3[C@@H]2c2ccc(F)cc2)C1 [Compound 4067]
0.968 µM	NC[C@H]1CC[C@@H]1OC(=O)N1CCc2ccccc2[C@@H]1c1ccc(F)cc1 [Compound 4064]
0.72 µM	NC12CC(NC(=O)N3CCc4ccccc4[C@H]3c3ccc(F)cc3)(C1)C2 [Compound 4003, (R)—N-(3-aminobicyclo[1.1.1]pentan-1-yl)-1-(4-fluorophenyl)-3,4-dihydroisoquinoline-2(1H)-carboxamide]
0.347 µM	NC[C@@H]1CC[C@@H]1OC(=O)N1CCc2ccccc2[C@@H]1c1ccc(F)cc1 [Compound 4124]
0.85 µM	CNC12CC(OC(=O)N3CCc4ccccc4[C@@H]3c3ccc(F)cc3)(C1)C2 [Compound 4026, 3-(Methylamino)bicyclo[1.1.1]pentan-1-yl (S)-1-(4-fluorophenyl)-3,4-dihydroisoquinoline-2(1H)-carboxylate hydrochloride]
0.672 µM	CN(C)[C@H]1C[C@@H](NC(=O)N2CCc3ccccc3[C@@H]2c2ccc(F)cc2)C1 [Compound 4069]
0.92 µM	N[C@H]1C[C@@H](COC(=O)N2CCc3ccccc3[C@@H]2c2ccc(F)cc2)C1 [Compound 4046, (Cis-3-aminocyclobutyl)methyl (S)-1-(4-fluorophenyl)-3,4-dihydroisoquinoline-2(1H)-carboxylate]
0.245 µM	N[C@]1(CO)C[C@@H](C(=O)N2CCc3ccccc3[C@@H]2c2ccc(F)cc2)C1 [Compound 4152, (trans-3-amino-3-(hydroxymethyl)cyclobutyl)((S)-1-(4-fluorophenyl)-3,4-dihydroisoquinolin-2(1H)-yl)methanone]
0.365 µM	N[C@H]1C[C@@H](CC(=O)N2CCc3ccccc3[C@@H]2c2ccc(F)cc2)C1 [Compound 4121]
0.821 µM	NC[C@H]1CC[C@H]1OC(=O)N1CCc2ccccc2[C@@H]1c1ccc(F)cc1 [Compound 4065]
0.31 µM	C[C@]1(N)C[C@@H](NC(=O)N2CCc3ccccc3[C@@H]2c2ccc(F)cc2)C1 [Compound 4041, (S)—N-(cis-3-amino-3-methylcyclobutyl)-1-(4-fluorophenyl)-3,4-dihydroisoquinoline-2(1H)-carboxamide hydrochloride]
